Test: Inhibition of rabbit recombinant GSK3-beta
Design: species or system Oryctolagus cuniculus

IC50	SMILES
> 100 µM	CC(=O)Nc1nsc(NC(C)=O)n1
> 100 µM	Cc1ccc(-c2nsc(=O)[nH]2)cc1
> 100 µM	CCOC(=O)Cn1c(-c2ccc(C)cc2)nsc1=O
> 100 µM	O=C(/N=c1\s[nH]c(=O)n1Cc1ccccc1)c1ccccc1
> 100 µM	O=c1nc(NCc2ccccc2)sn1Cc1ccccc1
> 100 µM	CCOC(=O)Cn1c(=O)n(Cc2ccccc2)s/c1=N\C(=O)c1ccccc1
> 100 µM	CCOC(=O)c1nsc(-c2ccccc2)n1
> 100 µM	Cn1sc(NC(=O)c2ccccc2)nc1=O
> 100 µM	O=C(Nc1nc(=O)[nH]s1)c1ccccc1
> 100 µM	Cn1s/c(=N\C(=O)c2ccccc2)n(CC(=O)O)c1=O
> 100 µM	Cn1s/c(=N\Cc2ccccc2)n(Cc2ccccc2)c1=O
> 100 µM	CCOC(=O)Cn1c(=O)n(C)s/c1=N\Cc1ccccc1
> 100 µM	CCOC(=O)c1nc(-c2ccc(Cl)cc2)ns1
> 100 µM	Cn1s/c(=N\C(=O)c2ccccc2)n(C)c1=O
25 µM	Nc1nc(=O)[nH]s1
40 µM	Cn1sc(N)nc1=O
15 µM	Cn1sc(NCCc2ccccc2)nc1=O
20 µM	CCOC(=O)CNc1nc(=O)n(C)s1
> 100 µM	N#CCn1s/c(=N\C(=O)c2ccccc2)n(CC#N)c1=O
15 µM	Cn1sc(Nc2ccc(Br)cc2)nc1=O
20 µM	Cn1sc(NCc2ccccc2)nc1=O
> 100 µM	ClCc1nc(-c2ccccc2)ns1
> 100 µM	c1ccc(-c2nsc(-c3ccccc3)n2)cc1

IC50	SMILES
> 100 µM	CCNc1nsc(NCC)n1
> 100 µM	Cc1ccc(-c2nsc(S(=O)(=O)c3ccc(C)cc3)n2)cc1
> 100 µM	CCOC(=O)c1nc(-c2ccc(OC)cc2)ns1
> 100 µM	CCOC(=O)c1nc(-c2ccccc2)ns1
> 100 µM	CCOC(=O)c1nc(-c2cc(C(C)(C)C)c(O)c(C(C)(C)C)c2)ns1
> 100 µM	Cn1s/c(=N\c2ccc(Br)cc2)n(C)c1=O
> 100 µM	CCOC(=O)c1nc(-c2ccc([N+](=O)[O-])cc2)ns1
> 100 µM	CCOC(=O)Cn1c(=O)n(C)s/c1=N\C(=O)c1ccccc1
6.5 µM	O=c1nc(NCc2ccccc2)s[nH]1
> 100 µM	N#CCn1c(=O)[nH]s/c1=N\C(=O)c1ccccc1
> 100 µM	CCOC(=O)Nc1nc(=O)n(C)s1
> 100 µM	Cn1sc(NCCO)nc1=O
> 100 µM	Cc1ccccc1-c1nsc(=O)[nH]1
18 µM	CNc1nc(=O)n(C)s1
> 100 µM	O=C(Nc1nc(=O)n(Cc2ccccc2)s1)c1ccccc1
> 100 µM	c1cc(Nc2nsc(Nc3ccncc3)n2)ccn1
12.5 µM	Cn1sc(Nc2ccccc2)nc1=O
> 100 µM	O=C(O)Cn1c(=O)n(Cc2ccccc2)s/c1=N\C(=O)c1ccccc1
> 100 µM	O=C(/N=c1\sn(Cc2ccccc2)c(=O)n1Cc1ccccc1)c1ccccc1
> 100 µM	Cn1s/c(=N\C(=O)c2ccccc2)n(CC#N)c1=O
> 100 µM	Cn1s/c(=N\C(=O)c2ccccc2)n(Cc2ccccc2)c1=O
> 100 µM	c1ccc(Nc2nsc(Nc3ccccc3)n2)cc1
75 µM	Cn1sc(NCC(=O)O)nc1=O

Reference: ChEMBL document CHEMBL1144671, “Non-ATP competitive glycogen synthase kinase 3beta (GSK-3beta) inhibitors: study of structural requirements for thiadiazolidinone derivatives” (Bioorg Med Chem, 2008)
